Laboratory results taken from patent US20250296959A1, “B7-H3 TARGETING PEPTIDES AND CONSTRUCTS THEREOF” (Mariana Oncology Inc., priority 2024, published 2025).
pKd: −log10 of the molar value. Positions of bridges follow the written chain, without caps; N, C: chain ends. Non-standard residues stand in square brackets, D forms with d. Residues, ends and D or L forms follow the SMILES beside them. *: point of attachment. DOTA = O=C(O)CN1CCN(CC(=O)O)CCN(CC(=O)*)CCN(CC(=O)O)CC1; Trp(5-F) = N[C@@H](Cc1c[nH]c2ccc(F)cc12)C(=O)O; 1Nal = N[C@@H](Cc1cccc2ccccc12)C(=O)O; Ala(4-THP) = N[C@@H](CC1CCOCC1)C(=O)O; 4Pal = N[C@@H](Cc1ccncc1)C(=O)O; Abu(4-CN) = N#CCC[C@H](N)C(=O)O; Tle = CC(C)(C)[C@H](N)C(=O)O; hLeu = CC(C)CC[C@H](N)C(=O)O; NMeS = CN[C@@H](CO)C(=O)O; Sar = CNCC(=O)O

Target: T1, human 4lg B7-H3 (Homo sapiens, UniProt Q5ZPR3)
T1 sequence (Q5ZPR3 29-534): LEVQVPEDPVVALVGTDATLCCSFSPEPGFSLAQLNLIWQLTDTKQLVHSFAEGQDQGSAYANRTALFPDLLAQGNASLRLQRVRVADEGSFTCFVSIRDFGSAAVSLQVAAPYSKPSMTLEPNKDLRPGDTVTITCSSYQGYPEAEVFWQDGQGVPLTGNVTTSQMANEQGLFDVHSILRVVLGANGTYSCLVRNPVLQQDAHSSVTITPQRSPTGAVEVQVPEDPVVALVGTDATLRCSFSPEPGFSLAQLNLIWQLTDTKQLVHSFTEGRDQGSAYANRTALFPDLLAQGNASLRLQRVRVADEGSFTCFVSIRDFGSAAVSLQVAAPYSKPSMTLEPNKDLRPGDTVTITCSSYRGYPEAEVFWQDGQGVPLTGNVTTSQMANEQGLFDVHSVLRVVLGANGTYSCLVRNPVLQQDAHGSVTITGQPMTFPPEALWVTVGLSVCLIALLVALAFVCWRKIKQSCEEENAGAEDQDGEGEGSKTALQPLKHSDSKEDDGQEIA
Assay: Affinity determination by surface plasmon resonance (SPR) to 4Ig B7-H3
Conditions: 4Ig B7-H3

[1] = SPR KD—25° C., 25° C. flow cell temperature

## CC(=O)N[C@@H](CCC(C)C)C(=O)N[C@@H](Cc1ccc(O)cc1)C(=O)N[C@H]1CSSC[C@@H](C(=O)N[C@@H](Cc2c[nH]c3ccc(F)cc23)C(=O)N[C@@H](Cc2ccccc2)C(=O)N[C@H](C(=O)N[C@H](CCCCNC(=O)CN2CCN(CC(=O)O)CCN(CC(=O)O)CCN(CC(=O)O)CC2)C(=O)O)C(C)(C)O)NC(=O)[C@H](Cc2ccc(O)cc2)NC(=O)[C@H](C(C)C)NC(=O)[C@H](CC(=O)O)NC(=O)[C@H](CC2CCC(O)CC2)NC(=O)[C@H](CC2CCNCC2)NC(=O)CNC(=O)[C@H](C(C)(C)C)NC1=O (single isomer, unassigned) [compound 479, Ac-hLeu-Y-C-Tbg-G-PipAla-4OHCha(pk1)-D-V-Y-C-5FW-F-hydroxyVal-dLys(DOTA)-COOH]
SPR KD—37° C., 37° C. flow cell temperature
  pKd: > 9.00

## CC(=O)N[C@@H](CCC(C)C)C(=O)N[C@@H](Cc1ccc(O)cc1)C(=O)N[C@H]1CSSC[C@@H](C(=O)N[C@@H](Cc2c[nH]c3ccc(F)cc23)C(=O)N[C@@H](Cc2ccccc2)C(=O)N2CCC[C@H]2C(=O)N[C@H](CCCCNC(=O)CN2CCN(CC(=O)O)CCN(CC(=O)O)CCN(CC(=O)O)CC2)C(N)=O)NC(=O)[C@H](Cc2ccc(O)cc2)NC(=O)[C@H](C(C)C)NC(=O)[C@H](CC(=O)O)NC(=O)[C@H](CC2CCOCC2)NC(=O)[C@H](CCCCN)NC(=O)CNC(=O)[C@H](C(C)C)NC1=O [compound 271, Ac-hLeu-Y-C-V-G-K-ThpA-D-V-Y-C-5FW-F-Pro-dLys(DOTA)-CONH2] (Ac-[hLeu]YCVGK[Ala(4-THP)]DVYC[Trp(5-F)]FP[dK](DOTA)-NH2; disulfide 3-11)
[1]
  pKd: > 9.00

## CC(=O)N[C@@H](CCC(C)C)C(=O)N[C@@H](Cc1ccc(O)cc1)C(=O)N[C@H]1CSSC[C@@H](C(=O)N[C@@H](Cc2cccc3ccccc23)C(=O)N[C@@H](Cc2ccccc2)C(=O)N(C)[C@@H](CO)C(=O)N[C@H](CCCCNC(=O)CN2CCN(CC(=O)O)CCN(CC(=O)O)CCN(CC(=O)O)CC2)C(N)=O)NC(=O)[C@H](CCC#N)NC(=O)[C@H](C(C)C)NC(=O)[C@H](CC(=O)O)NC(=O)[C@H](Cc2ccncc2)NC(=O)[C@H](CCCCN)NC(=O)CNC(=O)[C@H](C(C)(C)C)NC1=O [compound 221, Ac-hLeu-Y-C-Tbg-G-K-4PyA-D-V-CyanoButric-C-1Nal-F-NMeSer-dLys(DOTA)-CONH2] (Ac-[hLeu]YC[Tle]GK[4Pal]DV[Abu(4-CN)]C[1Nal]F[NMeS][dK](DOTA)-NH2; disulfide 3-11)
[1]
  pKd: 6.52 to 7.00

## CC(=O)N[C@@H](CCC(C)C)C(=O)N[C@@H](Cc1ccc(O)cc1)C(=O)N[C@H]1CSSC[C@@H](C(=O)N[C@@H](Cc2c[nH]c3ccc(F)cc23)C(=O)N[C@@H](Cc2ccccc2)C(=O)N[C@H](C(=O)N[C@H](CCCCNC(=O)CN2CCN(CC(=O)O)CCN(CC(=O)O)CCN(CC(=O)O)CC2)C(N)=O)[C@@H](C)O)NC(=O)[C@H](Cc2ccc(O)cc2)NC(=O)[C@H](C(C)C)NC(=O)[C@H](CC(=O)O)NC(=O)[C@H](Cc2ccc(O)cc2)NC(=O)[C@H](CCCCN)NC(=O)CN(C)C(=O)[C@H](C(C)(C)C)NC1=O [compound 78, Ac-hLeu-Y-C-Tbg-Sar-K-Y-D-V-Y-C-5FW-F-Thr-dLys(DOTA)-CONH2] (Ac-[hLeu]YC[Tle][Sar]KYDVYC[Trp(5-F)]FT[dK](DOTA)-NH2; disulfide 3-11)
[1]
  pKd: 8.00 to 9.00

## CC(=O)N[C@@H](CCC(C)C)C(=O)N[C@@H](Cc1ccc(O)cc1)C(=O)N[C@H]1CSSC[C@@H](C(=O)N[C@@H](Cc2cccc3ccccc23)C(=O)N[C@@H](Cc2ccccc2)C(=O)N(C)[C@@H](CO)C(=O)N[C@H](CCCCNC(=O)CN2CCN(CC(=O)O)CCN(CC(=O)O)CCN(CC(=O)O)CC2)C(N)=O)NC(=O)[C@H](Cc2ccc(O)cc2)NC(=O)[C@H](C(C)C)NC(=O)[C@H](CC(=O)O)NC(=O)[C@H](Cc2ccncc2)NC(=O)[C@H](CCCCN)NC(=O)CNC(=O)[C@H](C(C)(C)C)NC1=O [compound 219, Ac-hLeu-Y-C-Tbg-G-K-4PyA-D-V-Y-C-1Nal-F-NMeSer-dLys(DOTA)-CONH2] (Ac-[hLeu]YC[Tle]GK[4Pal]DVYC[1Nal]F[NMeS][dK](DOTA)-NH2; disulfide 3-11)
[1]
  pKd: 8.00 to 9.00
